Measured values from patent US11136347B2, “Crystalline forms of a fatty acid bile acid conjugate, preparation method thereof and use thereof” (Crystal Pharmaceutical (Suzhou) Co., Ltd., priority 2017, dated 2021).

Tests used:
Assay type in all cases: physicochemical
[1] = Particle size distribution (Microtrac S3500 laser particle size analyzer, wet mode); settings: after ultrasonication for 30 seconds, dispersion medium Isopar G
Protocol: The particle size distribution data in the present disclosure were acquired by an S3500 laser particle size analyzer of Microtrac. Microtrac S3500 is equipped with an SDC (Sample Delivery Controller). The test was carried out in wet mode, and the dispersion medium is Isopar G. The parameters are as follows:
The particle size distribution of Form CS3 and the solid disclosed in CN100386339C were tested after ultrasonication for 30 seconds. The average particle size of Form CS3 is 26.3 μm, and D90 is 62.8 μm. The average particle size and D90 of the solid disclosed in prior art are 452.5 μm and 870.3 μm. Compared with prior art, Form CS3 has smaller particle size, which increases the specific surface area of the drug substance, improves the dissolution rate of drug, thereby facilitating drug absorption and further improving the bioavailability of the drug.
The particle size distribution of Form CS2 and the solid disclosed in CN100386339C were tested after ultrasonication for 30 seconds. An average particle size of Form CS2 is 41.9 μm, and D90 is 87.5 μm, while the average particle size and D90 of the solid disclosed in prior art are 452.5 μm and 870.3 μm. Compared with prior art, Form CS2 has smaller particle size, which increases the specific surface area of the drug substance, improves the dissolution rate of drug, thereby facilitating drug absorption and further improving the bioavailability of the drug.

[2] = Stability study: storage in open dishes, crystalline form checked by XRPD; settings: for Form change: XRPD
Protocol: Solid samples of Form CS3 were stored under different conditions of 25° C./60% RH and 40° C./75% RH in open dishes for one year. Crystalline form was checked by XRPD.
Form CS8 were stored in open dishes under 25° C./60% RH, 40° C./75% RH and 60° C./75% RH conditions for three weeks, and sampled for XRPD test.

[3] = Hygroscopicity study by dynamic vapor sorption (DVS); settings: for The definition of hygroscopicity: Chinese Pharmacopoeia 2015 edition, 25° C. +/−1° C.; for The definition of hygroscopicity / Weight gain under 80% Relative Humidity: 80% RH; for Weight gain under 80% Relative Humidity: DVS
Protocol: Dynamic vapor sorption (DVS) was applied to test hygroscopicity of Form CS3 and the solid disclosed in CN100386339C with about 15 mg of samples. […] DVS plot of test hygroscopicity of Form CS3 is depicted in FIG. 1G. What's more, the crystalline form of Form CS3 didn't change after DVS test, which is depicted in FIG. 1H.
Dynamic vapor sorption (DVS) was applied to test hygroscopicity of Form CS2 with about 10 mg of samples. […] As depicted in FIG. 1I, weight gain of the solid disclosed in prior art under 80% RH is 2.44%. The hygroscopicity of Form CS2 is lower than that of prior art.
Dynamic vapor sorption (DVS) was applied to test hygroscopicity of Form CS5 with about 8 mg of samples. […] As depicted in FIG. 1I, weight gain of the solid disclosed in prior art under 80% RH is 2.44%. The hygroscopicity of Form CS5 is lower than that of prior art.
Dynamic vapor sorption (DVS) was applied to test hygroscopicity of Form CS8 with about 7 mg of sample. […] As depicted in FIG. 1I, weight gain of the solid disclosed in prior art under 80% RH is 2.44%. The hygroscopicity of Form CS8 is lower than that of prior art. […] The XRPD patterns before and after DVS were shown in FIG. 4F, top: the XRPD pattern before DVS; bottom: XRPD pattern after DVS.

[4] = listed as solid disclosed in prior art

| SMILES | D10 [1] | D50 [1] | D90 [1] | MV (average particle diameter calculated by volume) [1] | Time for which the crystalline form doesn't change (stable) ([2]; 25° C./60% RH) | Time for which the crystalline form doesn't change (stable) ([2]; 40° C./75% RH) | Time for which the crystalline form doesn't change (stable) ([2]; 60° C./75% RH) | Weight gain under 80% Relative Humidity [3] | Form change before and after DVS test (XRPD) [3] | The definition of hygroscopicity [3] | further results |
| --- | --- | --- | --- | --- | --- | --- | --- | --- | --- | --- | --- |
| CCCCCCCCCCCCCCCCCCCC(=O)N[C@H]1CC[C@@]2(C)[C@@H](C1)C[C@@H](O)[C@@H]1[C@@H]2C[C@H](O)[C@]2(C)[C@@H]([C@H](C)CCC(=O)O)CC[C@@H]12 [Form CS3, 3β-arachidylamido-7α,12α-dihydroxy-5β-cholan-24-oic acid] | 2.0 μm | 12.3 μm | 62.8 μm | 26.3 μm | at least 3 weeks | at least 3 weeks | at least 3 weeks | 0.15% | didn't change |  | Form change ([2]; 25° C./60% RH, one year): No form change; Form change ([2]; 40° C./75% RH, one year): No form change |
| CCCCCCCCCCCCCCCCCCCC(=O)N[C@H]1CC[C@@]2(C)[C@@H](C1)C[C@@H](O)[C@@H]1[C@@H]2C[C@H](O)[C@]2(C)[C@@H]([C@H](C)CCC(=O)O)CC[C@@H]12 [Form CS5, 3β-arachidylamido-7α,12α-dihydroxy-5β-cholan-24-oic acid] |  |  |  | 75.6 μm | at least 3 weeks | at least 3 weeks | at least 3 weeks | 0.35% | No form change | slightly hygroscopic (Increase in mass is less than 2 percent and equal to or greater than 0.2 percent) |  |

Continued, in another order:

| D10 [1] | D50 [1] | D90 [1] | MV (average particle diameter calculated by volume) [1] | Time for which the crystalline form doesn't change (stable) ([2]; 25° C./60% RH) | Time for which the crystalline form doesn't change (stable) ([2]; 40° C./75% RH) | Time for which the crystalline form doesn't change (stable) ([2]; 60° C./75% RH) | Weight gain under 80% Relative Humidity [3] | Form change before and after DVS test (XRPD) [3] | SMILES | The definition of hygroscopicity [3] | further results |
| --- | --- | --- | --- | --- | --- | --- | --- | --- | --- | --- | --- |
| 9.7 μm | 27.9 μm | 87.5 μm | 41.9 μm | at least 3 weeks | at least 3 weeks | at least 3 weeks | 0.46% | No form change | CCCCCCCCCCCCCCCCCCCC(=O)N[C@H]1CC[C@@]2(C)[C@@H](C1)C[C@@H](O)[C@@H]1[C@@H]2C[C@H](O)[C@]2(C)[C@@H]([C@H](C)CCC(=O)O)CC[C@@H]12 [Form CS2, 3β-arachidylamido-7α,12α-dihydroxy-5β-cholan-24-oic acid] | slightly hygroscopic (Increase in mass is less than 2 percent and equal to or greater than 0.2 percent) |  |
|  |  |  |  |  |  |  | 0.40% | No form change | CCCCCCCCCCCCCCCCCCCC(=O)N[C@H]1CC[C@@]2(C)[C@@H](C1)C[C@@H](O)[C@@H]1[C@@H]2C[C@H](O)[C@]2(C)[C@@H]([C@H](C)CCC(=O)O)CC[C@@H]12 [Form CS8, 3β-arachidylamido-7α,12α-dihydroxy-5β-cholan-24-oic acid] |  | Form change ([2]; 25° C./60% RH, three weeks): no form change; Form change ([2]; 40° C./75% RH, three weeks): no form change; Form change ([2]; 60° C./75% RH, three weeks): no form change |
| 95.0 μm | 398.8 μm | 870.3 μm | 452.5 μm |  |  |  | 2.44% |  | CCCCCCCCCCCCCCCCCCCC(=O)N[C@H]1CC[C@@]2(C)[C@@H](C1)C[C@@H](O)[C@@H]1[C@@H]2C[C@H](O)[C@]2(C)[C@@H]([C@H](C)CCC(=O)O)CC[C@@H]12 [Solid disclosed in CN100386339C, 3β-arachidylamido-7α,12α-dihydroxy-5β-cholan-24-oic acid, reference compound] |  | D90 ([1]; listed as prior art): 870.3 μm; MV (average particle diameter calculated by volume) ([1]; listed as prior art): 452.5 μm; D90 [1, 4]: 870.3 μm; MV (average particle diameter calculated by volume) [1, 4]: 452.5 μm; The definition of hygroscopicity [3, 4]: hygroscopic (Increase in mass is less than 15 percent and equal to or greater than 2 percent); Weight gain under 80% Relative Humidity ([3]; listed as amorphous solid): 2.44%; Weight gain under 80% Relative Humidity [3, 4]: 2.44%; Weight gain under 80% Relative Humidity ([3]; listed as solid of prior art): 2.44% |
